The values that follow come from patent EP4772530A1, “PEPTIDE TARGETING SOMATOSTATIN RECEPTOR, DRUG CONJUGATE AND USE THEREOF” (Mainline Biosciences (Shanghai) Co., Ltd., priority 2023, dated 2025).

Values joined by “and” are separate entries in the source; they are usually repeats but may differ in a detail not shown here. Identical values can stand only once. Counter-ions that a name gives are not always drawn. *1 amine or outer side, *2 acyl side, *3 side chain or, on linkers, in order; H or OH if unused. Where a SMILES comes first, the peptide text is derived from it. Bridges are numbered along the chain shown (N, C = ends). Roman numbers before positions name the chains, in order. [ ]: non-standard residue; d: D form. The star is where a group is joined. Hexanoyl(6-succinimido-3yl) = O=C1CC([*:1])C(=O)N1CCCCCC(=O)[*:2]; Dolaproine = CO[C@@H]([C@@H]1CCCN1)[C@@H](C)C(=O)O; Dil = CC[C@H](C)[C@H](NC)[C@@H](CC(=O)O)OC; PABC = O=C(OCc1ccc(N[*:1])cc1)[*:2]; PEG6 = NCCOCCOCCOCCOCCOCCOCCC(=O)O; X2 = C[C@@H](N*)[C@@H](O)c1ccccc1; Cit = NC(=O)NCCC[C@H](N)C(=O)O; NMeV = CN[C@H](C(=O)O)C(C)C; AEEA = NCCOCCOCC(=O)O

For assay [1], the system named is Human multiple myeloma MM.1S cells. The experiment in a line: EX3.3 in vivo pharmacodynamics, MM.1S subcutaneous xenograft model. On the set-up: species or system CB17 SCID mice. The note with it: for Tumor Volume (Mean ± SEM): Ixazomib Citrate 4 mg/kg, Oral Gavage, Twice Weekly. As for the experimental part:
Human multiple myeloma MM.1S cells were suspended and cultured in vitro in 1640 medium containing 10% fetal bovine serum, 100 U/mL penicillin, and 100 µg/mL streptomycin in a 5% CO2 incubator at 37°C. The suspended cells were collected by centrifugation twice a week and adherent cells were digested with trypsin-EDTA to prepare a cell suspension for subculture. When the cell saturation was 80%-90% and the cell number reached the requirement, the cells were collected, counted, and inoculated.
CB17 SCID mice, female, 6-8 weeks old, weighing 18-22 g, provided by Zhejiang Vital River Laboratory Animal Technology Co., Ltd.
Each mouse was subcutaneously injected with 100 µL of PBS containing 5×10^6 MM.1S cells + 100 µL of Matrigel (final volume: 200 µL) at the axilla of the right forelimb. At 20 days after injection, when the average tumor volume reached 109 mm^3, mice were grouped for dosing (vehicle control,Ixazomib Citrate, and Example 1 treatment groups, with 6 animals per group). The Ixazomib Citrate group was orally administered by gavage (4 mg/kg) twice a week; the vehicle control group (5%DMSO + 95% normal saline) and the Example 1 treatment group (1.75 mg/kg) were slowly intravenously injected for about 30 seconds each time, twice a week.
The experimental indicators were used to investigate whether tumor growth was inhibited, delayed, or cured. The tumor diameter was measured twice a week using a vernier caliper. The tumor volume was calculated as follows: V = 0.5a×b^2, where a and b were the long and short diameters of the tumor, respectively.
The anti-tumor efficacy of the drug was evaluated based on TGI (%) or relative tumor proliferation rate T/C (%). TGI (%) was the tumor growth inhibition rate. TGI (%) was calculated as follows: TGI (%)=[(1 -(mean tumor volume at the end of dosing in a certain treatment group - mean tumor volume at the start of dosing in the treatment group))/ (mean tumor volume at the end of dosing in the vehicle control group - mean tumor volume at the start of dosing in the vehicle control group)]× 100%.
T/C (%) was calculated as follows:T/C (%)= TRTV/ CRTV× 100 %. Based on the results of tumor measurement, the relative tumor volume (RTV) was calculated as follows: RTV = Vt/V0, where V0 was the mean tumor volume measured at the time of grouping (i.e. d0), and Vt was the mean tumor volume at a certain measurement. Data on the same day were taken for TRTV and CRTV.
Tumor weights were measured at the end of the experiment and T/Cweight was calculated, where Tweight and Cweight were tumor weights in the treatment and vehicle control groups, respectively.
Statistical analysis, including the mean and standard error (SEM) of tumor volume at each time point in each group (see Table 5-1 in Section 5.2 for specific data), was performed to evaluate differences between groups based on data from the treatment group on Day 18 post-dose at the end of the experiment. A t-test was used for comparison between two groups, and one-way ANOVA was used for comparison among three or more groups. If there was a significant difference in F value, the Games-Howell method was used for testing; if there was no significant difference in F value, the Dunnet (2-sided) method was used for analysis. All data were analyzed using SPSS 17.0.

A further assay has as its target T1, SSTR2 (Homo sapiens, UniProt P30874).
T1 construct: expressed in transfected cells; host or cells: CHO cells (SSTR2/CHO)
Nature of the assay: SSTR2 cAMP test. Type of assay: cell-based. The note with it: for EC50: SSTR2/CHO cells, Forskolin, cAMP activation rate; for activity at 50 µM: Max Dose 50000 nM. How it is done:
• 1) Compound preparation: The test compound was diluted by 4-fold with DMSO to obtain 10 different concentration points. Approximately 100 nL of the diluted compound was then transferred to a cell reaction plate and centrifuged for later use. • 2) Cell preparation:The cultured SSTR2/CHO cells were collected into a sterile centrifuge tube, and the supernatant was discarded by centrifugation. • 3) The cells were resuspended in assay buffer, counted using a Vi-cell counter, and diluted with assay buffer. • 4) Approximately 100 nL of 100 µM Forskolin was transferred into the cell reaction plate using an Echo and centrifuged. Then, 10 µL of assay buffer containing the cells was added and incubated. • 5) Approximately 10 µL of cAMP detection reagent solution was added to the corresponding wells of the cell reaction plate, and incubated at room temperature in the dark. • 6) The plate was read using a microplate reader. The final value was determined as the ratio of OD at 665 nm to that at 615 nm. • 7) The cAMP value was calculated for each well: Activity (%)=(signal value of sample well - mean signal value of low-signal control wells)/ (mean signal value of high-signal control wells - mean signal value of low-signal control wells). Fitting was performed using the "Nonlinear regression (curve fit)-log(agonist) vs. response -- Variable slope" model in GraphPad Prism 5.0, with the log-transformed compound concentration on the x-axis and cAMP activation rate on the y-axis. The EC50 value of the sample was calculated accordingly. Table 2: SSTR2 cAMP Test Results

The mark [2] stands for this setting: 18 days after the start of dosing, Ixazomib Citrate 4 mg/kg oral gavage twice a week.

T1 sequence (P30874 whole entry): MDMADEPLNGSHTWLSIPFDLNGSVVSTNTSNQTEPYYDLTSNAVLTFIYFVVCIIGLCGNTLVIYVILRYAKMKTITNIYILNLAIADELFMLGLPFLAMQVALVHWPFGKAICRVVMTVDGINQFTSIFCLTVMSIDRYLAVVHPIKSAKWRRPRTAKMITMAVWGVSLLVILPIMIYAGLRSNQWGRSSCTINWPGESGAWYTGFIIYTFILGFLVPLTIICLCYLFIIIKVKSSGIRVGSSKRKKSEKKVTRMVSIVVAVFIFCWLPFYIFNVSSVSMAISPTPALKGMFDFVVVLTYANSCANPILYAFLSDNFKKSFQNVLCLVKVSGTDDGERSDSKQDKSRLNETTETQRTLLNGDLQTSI

On to `CC(C)C[C@H](NC(=O)CNC(=O)c1cc(Cl)ccc1Cl)B1OC(=O)C(CC(=O)O)(CC(=O)O)O1` [Ixazomib Citrate], for which, in assay [1] (setting [2]), the T/C stood at 38.38%. This molecule gave a TGI in assay [1] (setting [2]) of 71.76%. Besides, the “Tumor Volume (Mean ± SEM)” value in assay [1] (Day 0) was 109 ± 6 mm3; in assay [1] (Day 4) it was 245 ± 23 mm3; in assay [1] (Day 7), 337 ± 25 mm3; in assay [1] (Day 11) it was 452 ± 59 mm3; in assay [1] (Day 14), 586 ± 100 mm3; in assay [1] (Day 18) it was 781 mm3 and 781 ± 177 mm3. Besides, the “Tumor Volume (Mean ± SEM)” value is listed as 925 ± 226 mm3 in assay [1] (Day 21), 1,139 ± 271 mm3 in assay [1] (Day 25) and 1,365 ± 331 mm3 in assay [1] (Day 28).
For the molecule `CC(C)C[C@H](NC(=O)[C@H](CCCNC(=N)N)NC(=O)[C@@H](N)CCCNC(=N)N)C(=O)N[C@@H](Cc1ccccc1)C(=O)N[C@H]1CSSC[C@@H](C(=O)N[C@H](C(=O)N[C@@H](Cc2c[nH]c3ccccc23)C(=O)N[C@@H](CCCNC(=N)N)C(=O)N[C@@H](CC(=O)O)C(N)=O)[C@@H](C)O)NC(=O)[C@H]([C@@H](C)O)NC(=O)[C@H](CCCCN)NC(=O)[C@@H](Cc2c[nH]c3ccccc23)NC(=O)[C@H](Cc2ccc(O)cc2)NC1=O` [SEQ ID No. 1, H-Arg-Arg-Leu-Phe-[Cys-Tyr-D-Trp-Lys-Thr-Cys]-Thr-Trp-Arg-Asp-NH2] (H-RRLFCY[dW]KTCTWRD-NH2; disulfide 5-10), the activity at 100 µM on SSTR2 (Max Dose 100000 nM) amounted to 98%. Also, the EC50 at SSTR2 was 217 nM.
`CC[C@H](C)[C@@H]([C@@H](CC(=O)N1CCC[C@H]1[C@H](OC)[C@@H](C)C(=O)N[C@H](C)[C@@H](O)c1ccccc1)OC)N(C)C(=O)[C@@H](NC(=O)[C@H](C(C)C)N(C)C(=O)OCc1ccc(NC(=O)[C@H](CCCNC(N)=O)NC(=O)[C@@H](NC(=O)CCCCCN2C(=O)CC(SC[C@H](NC(C)=O)C(=O)NCCOCCOCC(=O)NCCOCCOCC(=O)NCCOCCOCC(=O)N[C@@H](CCCNC(=N)N)C(=O)N[C@@H](CCCNC(=N)N)C(=O)N[C@@H](CC(C)C)C(=O)N[C@@H](Cc3ccccc3)C(=O)N[C@H]3CSSC[C@@H](C(=O)N[C@H](C(=O)N[C@@H](Cc4c[nH]c5ccccc45)C(=O)N[C@@H](CCCNC(=N)N)C(=O)N[C@@H](CC(=O)O)C(N)=O)[C@@H](C)O)NC(=O)[C@H]([C@@H](C)O)NC(=O)[C@H](CCCCN)NC(=O)[C@@H](Cc4c[nH]c5ccccc45)NC(=O)[C@H](Cc4ccccc4)NC3=O)C2=O)C(C)C)cc1)C(C)C` (stereo partly drawn) [Example 8, Ac-Cys(MC-Val-Cit-PABC-MMAE)-AEEA-AEEA-AEEA-Arg-Arg-Leu-Phe-[Cys-Phe-D-Trp-Lys-Thr-Cys]-Thr-Trp-Arg-Asp-NH2] (I: Ac-C[AEEA][AEEA][AEEA]RRLFCF[dW]KTCTWRD-NH2 / II: V[Cit][PABC][NMeV]V[Dil][Dolaproine]-X2; linker I:1-II:N via Hexanoyl(6-succinimido-3yl); disulfide I:9-I:14): on SSTR2, the activity at 50 µM came to 98.4% and the response was half-maximal at 404 nM (EC50).
On to `C[C@@H](O)[C@@H]1NC(=O)[C@H](CCCCN)NC(=O)[C@H](Cc2c[nH]c3ccccc23)NC(=O)[C@H](Cc2ccccc2)NC(=O)[C@H](Cc2ccccc2)NC(=O)[C@H](CC(N)=O)NC(=O)[C@H](CCCCN)NC(=O)[C@@H](NC(=O)[C@@H]2CCCN2)CSSC[C@@H](C(=O)N[C@@H](CCCCN)C(=O)O)NC(=O)[C@H](CO)NC(=O)[C@H](CO)NC(=O)[C@H](Cc2ccccc2)NC1=O` [Cortistatin14, reference compound] (H-PCKNFFWKTFSSCK-OH; disulfide 2-13), for which the activity at 1 µM on SSTR2 (Max Dose 1000 nM) amounted to 99.7%. At SSTR2, this molecule showed a 50% effective concentration (EC50) of 1.38 nM.
At SSTR2, `CC[C@H](C)[C@@H]([C@@H](CC(=O)N1CCC[C@H]1[C@H](OC)[C@@H](C)C(=O)N[C@H](C)[C@@H](O)c1ccccc1)OC)N(C)C(=O)[C@@H](NC(=O)[C@H](C(C)C)N(C)C(=O)OCc1ccc(NC(=O)[C@H](CCCNC(N)=O)NC(=O)[C@@H](NC(=O)CCCCCN2C(=O)CC(SC[C@H](NC(=O)CCOCCOCCOCCOCCOCCOCCN)C(=O)NCCOCCOCCOCCOCCOCCOCCC(=O)N[C@@H](CCCNC(=N)N)C(=O)N[C@@H](CCCNC(=N)N)C(=O)N[C@@H](CC(C)C)C(=O)N[C@@H](Cc3ccccc3)C(=O)N[C@H]3CSSC[C@@H](C(=O)N[C@H](C(=O)N[C@@H](Cc4c[nH]c5ccccc45)C(=O)N[C@@H](CCCNC(=N)N)C(=O)N[C@@H](CC(=O)O)C(N)=O)[C@@H](C)O)NC(=O)[C@H]([C@@H](C)O)NC(=O)[C@H](CCCCN)NC(=O)[C@@H](Cc4c[nH]c5ccccc45)NC(=O)[C@H](Cc4ccc(O)cc4)NC3=O)C2=O)C(C)C)cc1)C(C)C` (stereo partly drawn) [Example 2, PEG6-Cys(MC-Val-Cit-PABC-MMAE)-PEG6-Arg-Arg-Leu-Phe-[Cys-Tyr-D-Trp-Lys-Thr-Cys]-Thr-Trp-Arg-Asp-NH2] (I: H-[PEG6]C[PEG6]RRLFCY[dW]KTCTWRD-NH2 / II: V[Cit][PABC][NMeV]V[Dil][Dolaproine]-X2; linker I:2-II:N via Hexanoyl(6-succinimido-3yl); disulfide I:8-I:13) gave an activity at 50 µM of 95.4% and an EC50 of 477 nM.
Regarding `CC(C)C[C@H](NC(=O)[C@H](CCCNC(=N)N)NC(=O)[C@@H](N)CCCNC(=N)N)C(=O)N[C@@H](Cc1ccccc1)C(=O)N[C@H]1CSSC[C@@H](C(=O)N[C@H](C(=O)N[C@@H](Cc2c[nH]c3ccccc23)C(=O)N[C@@H](CCCNC(=N)N)C(=O)N[C@@H](CC(=O)O)C(N)=O)[C@@H](C)O)NC(=O)[C@H]([C@@H](C)O)NC(=O)[C@H](CCCCN)NC(=O)[C@@H](Cc2c[nH]c3ccccc23)NC(=O)[C@H](Cc2ccccc2)NC1=O` [SEQ ID No. 2, H-Arg-Arg-Leu-Phe-[Cys-Phe-D-Trp-Lys-Thr-Cys]-Thr-Trp-Arg-Asp-NH2] (H-RRLFCF[dW]KTCTWRD-NH2; disulfide 5-10), the activity at 150 µM on SSTR2 (Max Dose 150000 nM) came out at 99.1%. The EC50 on SSTR2 worked out at 35.4 nM.
